{"source": "paper PMC8319670", "about": "(Science translational medicine, 2021)", "key": {"[1]": {"system": "H6PD", "assay": "H6PD protein in prostate cancer patient tissues", "set-up": "species or system human", "conditions": "men with prostate cancer treated with enz and prostate tissues treated ex vivo; compared with pre-treatment"}, "[2]": {"system": "H6PD protein", "assay": "H6PD protein immunoblot in enz-treated cell lines", "type": "cell-based, human", "conditions": "in vitro, LAPC4, VCaP and MDA-Pca-2b; transcript not increased"}, "[3]": {"system": "H6PD activity in LAPC4 cells", "assay": "Endoplasmic reticulum / microsomal NADPH in LAPC4 cells"}, "[4]": {"target": "T1, H6PD (Homo sapiens, UniProt O95479)", "T1 sequence (O95479 20-791)": "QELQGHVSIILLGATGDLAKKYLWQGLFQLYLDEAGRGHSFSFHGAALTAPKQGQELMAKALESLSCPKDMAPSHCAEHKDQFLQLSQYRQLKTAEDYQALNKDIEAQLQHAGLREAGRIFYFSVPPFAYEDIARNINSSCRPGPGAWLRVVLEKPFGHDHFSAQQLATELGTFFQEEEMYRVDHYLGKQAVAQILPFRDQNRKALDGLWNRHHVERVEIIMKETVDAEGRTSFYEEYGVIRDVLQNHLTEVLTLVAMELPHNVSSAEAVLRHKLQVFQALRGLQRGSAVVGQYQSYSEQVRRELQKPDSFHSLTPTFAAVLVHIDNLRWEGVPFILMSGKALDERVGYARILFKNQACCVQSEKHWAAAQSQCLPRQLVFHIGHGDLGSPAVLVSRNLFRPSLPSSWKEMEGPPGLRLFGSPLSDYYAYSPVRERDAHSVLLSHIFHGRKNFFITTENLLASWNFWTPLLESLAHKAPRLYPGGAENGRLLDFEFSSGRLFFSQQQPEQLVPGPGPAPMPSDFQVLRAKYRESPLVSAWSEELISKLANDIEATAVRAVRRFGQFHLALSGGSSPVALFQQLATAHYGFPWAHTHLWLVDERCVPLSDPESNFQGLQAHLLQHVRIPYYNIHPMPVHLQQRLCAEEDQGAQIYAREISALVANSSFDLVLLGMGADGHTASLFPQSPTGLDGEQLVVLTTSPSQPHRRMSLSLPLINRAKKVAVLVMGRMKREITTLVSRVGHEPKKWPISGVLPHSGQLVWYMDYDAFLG", "assay": "H6PD IC50 assay", "type": "biochemical", "conditions": "for loss of H6PD inhibitory potency: relative to rucaparib"}, "[5]": {"target": "T1, H6PD", "assay": "In vitro H6PD activity assay", "type": "biochemical", "conditions": "for inhibition of H6PD activity: fig. S10"}, "[6]": {"target": "T1, H6PD", "assay": "Surface plasmon resonance", "type": "binding", "conditions": "SPR; Fig. 4A and fig. S9"}, "[7]": {"target": "G6PD (Homo sapiens, UniProt P11413)", "sequence (P11413 whole entry)": "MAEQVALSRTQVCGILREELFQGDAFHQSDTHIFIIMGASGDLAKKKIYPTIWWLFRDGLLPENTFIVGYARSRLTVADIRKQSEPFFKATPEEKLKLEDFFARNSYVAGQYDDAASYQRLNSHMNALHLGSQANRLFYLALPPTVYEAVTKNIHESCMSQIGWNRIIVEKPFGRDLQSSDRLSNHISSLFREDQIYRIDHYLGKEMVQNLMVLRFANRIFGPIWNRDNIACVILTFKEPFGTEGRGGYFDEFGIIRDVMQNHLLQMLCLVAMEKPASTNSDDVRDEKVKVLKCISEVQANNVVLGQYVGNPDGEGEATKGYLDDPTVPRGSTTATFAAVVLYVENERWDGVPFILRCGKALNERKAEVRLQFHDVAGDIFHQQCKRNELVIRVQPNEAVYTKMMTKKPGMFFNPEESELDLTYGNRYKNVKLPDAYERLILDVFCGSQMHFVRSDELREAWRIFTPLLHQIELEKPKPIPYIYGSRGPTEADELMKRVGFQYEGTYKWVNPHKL", "assay": "G6PD activity assay", "type": "biochemical", "conditions": "fig. S10"}, "[8]": {"system": "prostate cancer cells", "assay": "Glucocorticoid metabolism with apalutamide treatment", "type": "cell-based, human", "conditions": "similar to enzalutamide"}, "[9]": {"system": "PARP-1", "conditions": "cited from earlier work"}, "[10]": {"system": "H6PD", "conditions": "of four PARP inhibitors; cited from earlier work"}, "[11]": {"system": "enz-resistant LAPC4 cells", "assay": "Cell viability assay", "type": "cell-based, human", "conditions": "100 nM cortisol with 10 μM enz, 5 days; Fig 4E"}}}
{"smiles": "CNC(=O)c1ccc(N2C(=S)N(c3ccc(C#N)c(C(F)(F)F)c3)C(=O)C2(C)C)cc1F", "note": "[enzalutamide]", "values": [{"measurement": "H6PD in patient tissues post-treatment", "setting": "[1]", "value": "increase in H6PD was also detectable"}, {"measurement": "H6PD protein", "setting": "[2]", "value": "increased"}, {"measurement": "increase in NADPH generation in the endoplasmic reticulum", "setting": "[3]; LAPC4 cells, continuous enz treatment, p<0.0001", "value": "> 2", "unit": "fold"}]}
{"smiles": "CNCc1ccc(-c2[nH]c3cccc4c3c2CCNC4=O)cc1", "note": "[Compound 2]", "values": [{"measurement": "loss of H6PD inhibitory potency", "setting": "[4]", "value": "greater than 20 x"}]}
{"smiles": "O=C(c1cc(Cc2n[nH]c(=O)c3ccccc23)ccc1F)N1CCN(C(=O)C2CC2)CC1", "note": "[olaparib]", "values": [{"measurement": "inhibition of H6PD activity", "setting": "[5]", "value": "but not olaparib inhibited H6PD activity"}, {"measurement": "binding to H6PD", "setting": "[6]", "value": "but not olaparib (another PARP inhibitor) specifically bound H6PD"}, {"measurement": "inhibition of G6PD activity", "setting": "[7]", "value": "neither inhibited G6PD activity"}]}
{"smiles": "CNC(=O)c1ccc(N2C(=S)N(c3cnc(C#N)c(C(F)(F)F)c3)C(=O)C23CCC3)cc1F", "note": "[apalutamide]", "values": [{"measurement": "changes in glucocorticoid metabolism", "setting": "[8]", "value": "induces similar changes in glucocorticoid metabolism"}]}
{"smiles": "O=C1NCCc2c(-c3ccc(CO)cc3)[nH]c3cc(F)cc1c23", "note": "[Compound 5]", "values": [{"measurement": "IC50", "setting": "[4]; read-out: H6PD IC50", "value": 27, "unit": "µM"}, {"measurement": "PARP inhibition activity", "setting": "[9]", "value": "poor PARP inhibition activity"}]}
{"smiles": "CNCc1ccc(-c2[nH]c3cc(F)cc4c3c2CCNC4=O)cc1", "note": "[rucaparib]", "values": [{"measurement": "H6PD generation of NADPH in vitro", "setting": "[5]; H6PD protein, D-glucosamine 6-phosphate and NADP, 1 hour, Fig 4B", "value": "inhibited H6PD generation of NADPH in vitro"}, {"measurement": "inhibition of H6PD activity", "setting": "[5]", "value": "inhibited H6PD activity"}, {"measurement": "inhibition of H6PD activity", "setting": "[5]; listed as Rucaparib", "value": "modest H6PD inhibitor"}, {"measurement": "binding to H6PD", "setting": "[6]", "value": "specifically bound H6PD"}, {"measurement": "inhibition of G6PD activity", "setting": "[7]", "value": "neither inhibited G6PD activity"}, {"measurement": "off-target H6PD inhibition", "setting": "[10]", "value": "off-target H6PD inhibition was specifically identified only with rucaparib"}, {"measurement": "cell viability", "setting": "[11]", "value": "limited cell viability in vitro"}, {"measurement": "H6PD generation of NADPH in enz-resistant prostate cancer", "setting": "[3]; enz-resistant LAPC4 cells, 24 hours, microsomal NADPH, Fig 4C", "value": "inhibited H6PD generation of NADPH"}]}
{"smiles": "CNCc1ccc(-c2[nH]c3cc(F)cc4c3c2CCN(C)C4=O)cc1", "note": "[Compound 4]", "values": [{"measurement": "loss of H6PD inhibitory potency", "setting": "[4]", "value": "~ 10 x"}]}
